In PubChem BioAssay (NCI):
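Tested at 5 concentrations; 48 h exposure; 96-well plates; endpoints linearly interpolated, else capped at highest concentration. TGI is the concentration that stops growth completely.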

Assays:
Assay in all cases: NCI tumour cell line growth inhibition, 48 h
OVCAR-4 ovarian = tested on: OVCAR-4 ovarian
SNB-19 CNS = tested on: SNB-19 CNS
UO-31 renal = tested on: UO-31 renal
SW-620 colon = tested on: SW-620 colon
SK-MEL-5 melanoma = tested on: SK-MEL-5 melanoma
COLO 205 colon = tested on: COLO 205 colon
OVCAR-3 ovarian = tested on: OVCAR-3 ovarian
SK-MEL-28 melanoma = tested on: SK-MEL-28 melanoma
M19-MEL melanoma = tested on: M19-MEL melanoma
HCT-116 colon = tested on: HCT-116 colon
UACC-62 melanoma = tested on: UACC-62 melanoma
DMS 114 small cell lung = tested on: DMS 114 small cell lung
SR leukemia = tested on: SR leukemia
HL-60(TB) leukemia = tested on: HL-60(TB) leukemia
HOP-92 NSCLC = tested on: HOP-92 NSCLC
SF-539 CNS = tested on: SF-539 CNS
DLD-1 colon = tested on: DLD-1 colon
MALME-3M melanoma = tested on: MALME-3M melanoma
TK-10 renal = tested on: TK-10 renal
KM12 colon = tested on: KM12 colon
DMS 273 small cell lung = tested on: DMS 273 small cell lung
M14 melanoma = tested on: M14 melanoma
CCRF-CEM leukemia = tested on: CCRF-CEM leukemia
SF-268 CNS = tested on: SF-268 CNS
MOLT-4 leukemia = tested on: MOLT-4 leukemia
EKVX NSCLC = tested on: EKVX NSCLC
NCI-H226 lung = tested on: NCI-H226 lung
CAKI-1 renal = tested on: CAKI-1 renal
SNB-78 CNS = tested on: SNB-78 CNS
SNB-75 CNS = tested on: SNB-75 CNS
786-0 renal = tested on: 786-0 renal
A549 NSCLC = tested on: A549 NSCLC
OVCAR-8 ovarian = tested on: OVCAR-8 ovarian
RPMI-8226 leukemia = tested on: RPMI-8226 leukemia
HT29 colon = tested on: HT29 colon
K-562 leukemia = tested on: K-562 leukemia
NCI-H23 lung = tested on: NCI-H23 lung
UACC-257 melanoma = tested on: UACC-257 melanoma
SK-MEL-2 melanoma = tested on: SK-MEL-2 melanoma
SF-295 CNS = tested on: SF-295 CNS
LXFL 529 NSCLC = tested on: LXFL 529 NSCLC
HOP-62 NSCLC = tested on: HOP-62 NSCLC
SK-OV-3 ovarian = tested on: SK-OV-3 ovarian
SN12C renal = tested on: SN12C renal
HCC-2998 colon = tested on: HCC-2998 colon
NCI-H522 lung = tested on: NCI-H522 lung
NCI-H460 lung = tested on: NCI-H460 lung
IGROV1 ovarian = tested on: IGROV1 ovarian
LOX IMVI melanoma = tested on: LOX IMVI melanoma
U251 CNS = tested on: U251 CNS
ACHN renal = tested on: ACHN renal
XF 498 CNS = tested on: XF 498 CNS
HCT-15 colon = tested on: HCT-15 colon
KM20L2 colon = tested on: KM20L2 colon
OVCAR-5 ovarian = tested on: OVCAR-5 ovarian

O=S1(=O)OCCOS(=O)(=O)C1(Br)Br
TGI (OVCAR-4 ovarian): > 100 µM | TGI (SNB-19 CNS): > 100 µM | TGI (UO-31 renal): > 100 µM | TGI (SW-620 colon): > 100 µM | TGI (SK-MEL-5 melanoma): > 100 µM | TGI (COLO 205 colon): > 100 µM | TGI (OVCAR-3 ovarian): > 100 µM | TGI (SK-MEL-28 melanoma): > 100 µM | TGI (M19-MEL melanoma): > 100 µM | TGI (HCT-116 colon): > 100 µM | TGI (UACC-62 melanoma): > 100 µM | TGI (DMS 114 small cell lung): > 100 µM | TGI (SR leukemia): > 100 µM | TGI (HL-60(TB) leukemia): > 100 µM | TGI (HOP-92 NSCLC): > 100 µM | TGI (SF-539 CNS): > 100 µM | TGI (DLD-1 colon): > 100 µM | TGI (MALME-3M melanoma): > 100 µM | TGI (TK-10 renal): > 100 µM | TGI (KM12 colon): > 100 µM | TGI (DMS 273 small cell lung): > 100 µM | TGI (M14 melanoma): > 100 µM | TGI (CCRF-CEM leukemia): > 100 µM | TGI (SF-268 CNS): > 100 µM | TGI (MOLT-4 leukemia): > 100 µM | TGI (EKVX NSCLC): > 100 µM | TGI (NCI-H226 lung): 94.1 µM | TGI (CAKI-1 renal): > 100 µM | TGI (SNB-78 CNS): > 100 µM | TGI (SNB-75 CNS): > 100 µM | TGI (786-0 renal): > 100 µM | TGI (A549 NSCLC): > 100 µM | TGI (OVCAR-8 ovarian): > 100 µM | TGI (RPMI-8226 leukemia): > 100 µM | TGI (HT29 colon): > 100 µM | TGI (K-562 leukemia): > 100 µM | TGI (NCI-H23 lung): > 100 µM | TGI (UACC-257 melanoma): > 100 µM | TGI (SK-MEL-2 melanoma): > 100 µM | TGI (SF-295 CNS): > 100 µM | TGI (LXFL 529 NSCLC): > 100 µM | TGI (HOP-62 NSCLC): > 100 µM | TGI (SK-OV-3 ovarian): > 100 µM | TGI (SN12C renal): > 100 µM | TGI (HCC-2998 colon): > 100 µM | TGI (NCI-H522 lung): > 100 µM

Nc1nc(N)c(CCCCc2ccccc2)c(/C=C/c2ccc([N+](=O)[O-])cc2)n1
TGI (OVCAR-4 ovarian): 18.4 µM | TGI (SNB-19 CNS): 64.7 µM | TGI (NCI-H460 lung): 39.5 µM | TGI (IGROV1 ovarian): 20.2 µM | TGI (UO-31 renal): 8.51 µM | TGI (SW-620 colon): 5.91 µM | TGI (SK-MEL-5 melanoma): 16.3 µM | TGI (LOX IMVI melanoma): 13.5 µM | TGI (U251 CNS): 11.4 µM | TGI (COLO 205 colon): 47.6 µM | TGI (OVCAR-3 ovarian): 8.4 µM | TGI (SK-MEL-28 melanoma): 12.8 µM | TGI (M19-MEL melanoma): 30.3 µM | TGI (HCT-116 colon): 6.52 µM | TGI (UACC-62 melanoma): 7.46 µM | TGI (DMS 114 small cell lung): 4.29 µM | TGI (SR leukemia): 4.85 µM | TGI (HL-60(TB) leukemia): 3.14 µM | TGI (HOP-92 NSCLC): 2.21 µM | TGI (SF-539 CNS): 5.62 µM | TGI (DLD-1 colon): > 100 µM | TGI (ACHN renal): 18.2 µM | TGI (MALME-3M melanoma): 9.17 µM | TGI (TK-10 renal): 6.72 µM | TGI (XF 498 CNS): 3.74 µM | TGI (KM12 colon): 10.8 µM | TGI (M14 melanoma): 9.24 µM | TGI (CCRF-CEM leukemia): 6.01 µM | TGI (SF-268 CNS): 48.2 µM | TGI (MOLT-4 leukemia): 4.16 µM | TGI (EKVX NSCLC): > 100 µM | TGI (NCI-H226 lung): 55.6 µM | TGI (CAKI-1 renal): 31.6 µM | TGI (SNB-78 CNS): 12.8 µM | TGI (SNB-75 CNS): 9.87 µM | TGI (786-0 renal): 7.34 µM | TGI (A549 NSCLC): 19.3 µM | TGI (OVCAR-8 ovarian): 12.7 µM | TGI (RPMI-8226 leukemia): 19 µM | TGI (HT29 colon): 16.2 µM | TGI (NCI-H23 lung): 33.4 µM | TGI (UACC-257 melanoma): 22.2 µM | TGI (SK-MEL-2 melanoma): 10.8 µM | TGI (SF-295 CNS): 14.5 µM | TGI (HOP-62 NSCLC): 12.4 µM | TGI (SK-OV-3 ovarian): 39.1 µM | TGI (HCT-15 colon): 7.09 µM | TGI (SN12C renal): 8.96 µM | TGI (KM20L2 colon): 20.6 µM | TGI (HCC-2998 colon): 9.04 µM | TGI (NCI-H522 lung): 5.57 µM | TGI (OVCAR-5 ovarian): 15.8 µM
